Results: PubChem BioAssay (NCI)
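In this assay, cells in 96-well plates receive the compound at five concentrations for 48 hours. Endpoints are linearly interpolated between the surrounding concentrations. The concentration for 50% growth inhibition is given as GI50. TGI: concentration producing complete growth inhibition.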

Experiments:
Test in all cases: NCI anticancer screen, dose series, 48 h
786-0 renal = system: 786-0 renal
A498 renal = system: A498 renal
A549 NSCLC = system: A549 NSCLC
ACHN renal = system: ACHN renal
BT-549 breast = system: BT-549 breast
CAKI-1 renal = system: CAKI-1 renal
CCRF-CEM leukemia = system: CCRF-CEM leukemia
COLO 205 colon = system: COLO 205 colon
DU-145 prostate = system: DU-145 prostate
EKVX NSCLC = system: EKVX NSCLC
HCC-2998 colon = system: HCC-2998 colon
HCT-116 colon = system: HCT-116 colon
HCT-15 colon = system: HCT-15 colon
HL-60(TB) leukemia = system: HL-60(TB) leukemia
HOP-62 NSCLC = system: HOP-62 NSCLC
HOP-92 NSCLC = system: HOP-92 NSCLC
HS 578T breast = system: HS 578T breast
HT29 colon = system: HT29 colon
IGROV1 ovarian = system: IGROV1 ovarian
K-562 leukemia = system: K-562 leukemia
KM12 colon = system: KM12 colon
LOX IMVI melanoma = system: LOX IMVI melanoma
M14 melanoma = system: M14 melanoma
MALME-3M melanoma = system: MALME-3M melanoma
MCF7 breast = system: MCF7 breast
MDA-MB-231 breast = system: MDA-MB-231 breast
MDA-MB-435 = system: MDA-MB-435
MOLT-4 leukemia = system: MOLT-4 leukemia
NCI-H226 lung = system: NCI-H226 lung
NCI-H23 lung = system: NCI-H23 lung
NCI-H460 lung = system: NCI-H460 lung
NCI-H522 lung = system: NCI-H522 lung
NCI/ADR-RES ovarian = system: NCI/ADR-RES ovarian
OVCAR-3 ovarian = system: OVCAR-3 ovarian
OVCAR-4 ovarian = system: OVCAR-4 ovarian
OVCAR-5 ovarian = system: OVCAR-5 ovarian
OVCAR-8 ovarian = system: OVCAR-8 ovarian
PC-3 prostate = system: PC-3 prostate
RPMI-8226 leukemia = system: RPMI-8226 leukemia
RXF 393 renal = system: RXF 393 renal
SF-268 CNS = system: SF-268 CNS
SF-295 CNS = system: SF-295 CNS
SF-539 CNS = system: SF-539 CNS
SK-MEL-2 melanoma = system: SK-MEL-2 melanoma
SK-MEL-28 melanoma = system: SK-MEL-28 melanoma
SK-MEL-5 melanoma = system: SK-MEL-5 melanoma
SK-OV-3 ovarian = system: SK-OV-3 ovarian
SN12C renal = system: SN12C renal
SNB-19 CNS = system: SNB-19 CNS
SNB-75 CNS = system: SNB-75 CNS
SR leukemia = system: SR leukemia
SW-620 colon = system: SW-620 colon
T-47D breast = system: T-47D breast
TK-10 renal = system: TK-10 renal
U251 CNS = system: U251 CNS
UACC-257 melanoma = system: UACC-257 melanoma
UACC-62 melanoma = system: UACC-62 melanoma
UO-31 renal = system: UO-31 renal

CCCOc1ccc(/C=N/Nc2cc(C)nc3ccc(Cl)cc23)cc1
GI50 (786-0 renal): 1860 nM | TGI (786-0 renal): 3420 nM | GI50 (A498 renal): 1720 nM | TGI (A498 renal): 3160 nM | GI50 (A549 NSCLC): 1720 nM | TGI (A549 NSCLC): 3350 nM | GI50 (ACHN renal): 1740 nM | TGI (ACHN renal): 3120 nM | GI50 (BT-549 breast): 2170 nM | TGI (BT-549 breast): 5460 nM | GI50 (CAKI-1 renal): 1780 nM | TGI (CAKI-1 renal): 3200 nM | GI50 (CCRF-CEM leukemia): 1780 nM | TGI (CCRF-CEM leukemia): 4080 nM | GI50 (COLO 205 colon): 1820 nM | TGI (COLO 205 colon): 3400 nM | GI50 (DU-145 prostate): 1900 nM | TGI (DU-145 prostate): 3420 nM | GI50 (EKVX NSCLC): 1640 nM | TGI (EKVX NSCLC): 3050 nM | GI50 (HCC-2998 colon): 2030 nM | TGI (HCC-2998 colon): 3530 nM | GI50 (HCT-116 colon): 1700 nM | TGI (HCT-116 colon): 3320 nM | GI50 (HCT-15 colon): 1520 nM | TGI (HCT-15 colon): 2940 nM | GI50 (HL-60(TB) leukemia): 1830 nM | TGI (HL-60(TB) leukemia): 3780 nM | GI50 (HOP-62 NSCLC): 1580 nM | TGI (HOP-62 NSCLC): 2980 nM | GI50 (HOP-92 NSCLC): 1510 nM | TGI (HOP-92 NSCLC): 3110 nM | GI50 (HS 578T breast): 2150 nM | TGI (HS 578T breast): 4630 nM | GI50 (HT29 colon): 1800 nM | TGI (HT29 colon): 3490 nM | GI50 (IGROV1 ovarian): 1920 nM | TGI (IGROV1 ovarian): 3630 nM | GI50 (K-562 leukemia): 1480 nM | TGI (K-562 leukemia): 3130 nM | GI50 (KM12 colon): 1800 nM | TGI (KM12 colon): 3350 nM | GI50 (LOX IMVI melanoma): 1700 nM | TGI (LOX IMVI melanoma): 3100 nM | GI50 (M14 melanoma): 1690 nM | TGI (M14 melanoma): 3230 nM | GI50 (MALME-3M melanoma): 1790 nM | TGI (MALME-3M melanoma): 3260 nM | GI50 (MCF7 breast): 1670 nM | TGI (MCF7 breast): 3400 nM | GI50 (MDA-MB-231 breast): 1850 nM | TGI (MDA-MB-231 breast): 3490 nM | GI50 (MDA-MB-435): 1800 nM | TGI (MDA-MB-435): 3240 nM | GI50 (MOLT-4 leukemia): 1810 nM | TGI (MOLT-4 leukemia): 3770 nM | GI50 (NCI-H226 lung): 1690 nM | TGI (NCI-H226 lung): 3350 nM | GI50 (NCI-H23 lung): 1810 nM | TGI (NCI-H23 lung): 3520 nM | GI50 (NCI-H460 lung): 2040 nM | TGI (NCI-H460 lung): 4030 nM | GI50 (NCI-H522 lung): 1750 nM | TGI (NCI-H522 lung): 3420 nM | GI50 (NCI/ADR-RES ovarian): 1900 nM | TGI (NCI/ADR-RES ovarian): 3810 nM | GI50 (OVCAR-3 ovarian): 2130 nM | TGI (OVCAR-3 ovarian): 3700 nM | GI50 (OVCAR-4 ovarian): 1710 nM | TGI (OVCAR-4 ovarian): 3200 nM | GI50 (OVCAR-5 ovarian): 1870 nM | TGI (OVCAR-5 ovarian): 3280 nM | GI50 (OVCAR-8 ovarian): 2310 nM | TGI (OVCAR-8 ovarian): 4530 nM | GI50 (PC-3 prostate): 1530 nM | TGI (PC-3 prostate): 3130 nM | GI50 (RPMI-8226 leukemia): 1810 nM | TGI (RPMI-8226 leukemia): 3990 nM | GI50 (RXF 393 renal): 1550 nM | TGI (RXF 393 renal): 2940 nM | GI50 (SF-268 CNS): 2240 nM | TGI (SF-268 CNS): 4190 nM | GI50 (SF-295 CNS): 1720 nM | TGI (SF-295 CNS): 3200 nM | GI50 (SF-539 CNS): 1790 nM | TGI (SF-539 CNS): 3200 nM | GI50 (SK-MEL-2 melanoma): 1730 nM | TGI (SK-MEL-2 melanoma): 3220 nM | GI50 (SK-MEL-28 melanoma): 1730 nM | TGI (SK-MEL-28 melanoma): 3150 nM | GI50 (SK-MEL-5 melanoma): 1540 nM | TGI (SK-MEL-5 melanoma): 2880 nM | GI50 (SK-OV-3 ovarian): 1780 nM | TGI (SK-OV-3 ovarian): 3180 nM | GI50 (SN12C renal): 1820 nM | TGI (SN12C renal): 3310 nM | GI50 (SNB-19 CNS): 1950 nM | TGI (SNB-19 CNS): 3540 nM | GI50 (SNB-75 CNS): 1940 nM | TGI (SNB-75 CNS): 3540 nM | GI50 (SR leukemia): 1170 nM | TGI (SR leukemia): 3750 nM | GI50 (SW-620 colon): 1960 nM | TGI (SW-620 colon): 3790 nM | GI50 (T-47D breast): 1710 nM | TGI (T-47D breast): 3620 nM | GI50 (TK-10 renal): 2040 nM | TGI (TK-10 renal): 3470 nM | GI50 (U251 CNS): 2050 nM | TGI (U251 CNS): 3550 nM | GI50 (UACC-257 melanoma): 1790 nM | TGI (UACC-257 melanoma): 3320 nM | GI50 (UACC-62 melanoma): 1760 nM | TGI (UACC-62 melanoma): 3240 nM | GI50 (UO-31 renal): 1560 nM | TGI (UO-31 renal): 2910 nM
